Assay results: the supplement of paper PMC13207355

Experiments:
Details in all cases: exposure time: 72 h
E13 [1] = patient-derived glioblastoma stem cells of classical subtype; test: surviving fraction (nuclei count normalised to DMSO); higher = more cells surviving (less toxic)
E21 [2] = patient-derived glioblastoma stem cells of mesenchymal subtype; test: as above
E28 [3] = patient-derived glioblastoma stem cells of classical subtype; test: as above
E31 [4] = patient-derived glioblastoma stem cells of proneural subtype; test: as above
E34 [5] = patient-derived glioblastoma stem cells of proneural subtype; test: as above
E57 [6] = patient-derived glioblastoma stem cells of mesenchymal subtype; test: as above
FT3469 [7] = normal neural stem cell line; test: as above
E13 [8] = test: phenotypic distance (Euclidean, principal components) from DMSO controls (arbitrary units); higher = stronger morphological change
E21 [9] = test: as above
E28 [10] = test: as above
E31 [11] = test: as above
E34 [12] = test: as above
E57 [13] = test: as above
FT3469 [14] = test: as above
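Throughout, for phenotypic distance (Euclidean, principal components) from DMSO controls: cell Painting imaging in 384-well plates, CellProfiler features reduced to at least 20 principal components, Euclidean distance versus same-plate DMSO vehicle wells (0.1% v/v), median over six images per well.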
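Throughout, for surviving fraction (nuclei count normalised to DMSO): nuclei counted by high-content imaging of Hoechst-stained cells in laminin-coated 384-well plates, relative to 0.1% DMSO vehicle wells, with staurosporine as cell-death control.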

C[C@@H]1C[C@@H]([C@H](O)CC2CC(=O)NC(=O)C2)C(=O)[C@@H](C)C1 [Cycloheximide]
Details	phenotypic distance	surviving fraction
E13 [1], 4.1 nM	–	0.769
E13 [1], 12.3 nM	–	0.713
E13 [1], 37 nM	–	0.644
E13 [1], 111.1 nM	–	0.654
E13 [1], 333.3 nM	–	0.436
E13 [1], 1000 nM	–	0.408
E13 [1], 3000 nM	–	0.306
E13 [8], 4.1 nM	1.33	–
E13 [8], 12.3 nM	5.02	–
E13 [8], 37 nM	1.69	–
E13 [8], 111.1 nM	1.77	–
E13 [8], 333.3 nM	3.18	–
E13 [8], 1000 nM	3.1	–
E13 [8], 3000 nM	4.48	–
E21 [2], 4.1 nM	–	0.753
E21 [2], 12.3 nM	–	0.688
E21 [2], 37 nM	–	0.532
E21 [2], 111.1 nM	–	0.518
E21 [2], 333.3 nM	–	0.443
E21 [2], 1000 nM	–	0.356
E21 [2], 3000 nM	–	0.305
E21 [9], 4.1 nM	1.69	–
E21 [9], 12.3 nM	1.77	–
E21 [9], 37 nM	2.65	–
E21 [9], 111.1 nM	3.3	–
E21 [9], 333.3 nM	5.28	–
E21 [9], 1000 nM	4.65	–
E21 [9], 3000 nM	3.46	–
E28 [3], 4.1 nM	–	0.899
E28 [3], 12.3 nM	–	0.76
E28 [3], 37 nM	–	0.771
E28 [3], 111.1 nM	–	0.592
E28 [3], 333.3 nM	–	0.542
E28 [3], 1000 nM	–	0.346
E28 [3], 3000 nM	–	0.451
E28 [10], 4.1 nM	0.801	–
E28 [10], 12.3 nM	0.904	–
E28 [10], 37 nM	0.979	–
E28 [10], 111.1 nM	1.14	–
E28 [10], 333.3 nM	1.17	–
E28 [10], 1000 nM	1.95	–
E28 [10], 3000 nM	2.12	–
E31 [4], 4.1 nM	–	0.854
E31 [4], 12.3 nM	–	0.905
E31 [4], 37 nM	–	0.703
E31 [4], 111.1 nM	–	0.684
E31 [4], 333.3 nM	–	0.477
E31 [4], 1000 nM	–	0.297
E31 [4], 3000 nM	–	0.261
E31 [11], 4.1 nM	0.95	–
E31 [11], 12.3 nM	0.932	–
E31 [11], 37 nM	1.32	–
E31 [11], 111.1 nM	1.7	–
E31 [11], 333.3 nM	2.21	–
E31 [11], 1000 nM	2.11	–
E31 [11], 3000 nM	3	–
E34 [5], 4.1 nM	–	0.885
E34 [5], 12.3 nM	–	0.873
E34 [5], 37 nM	–	0.815
E34 [5], 111.1 nM	–	0.616
E34 [5], 333.3 nM	–	0.562
E34 [5], 1000 nM	–	0.584
E34 [5], 3000 nM	–	0.414
E34 [12], 4.1 nM	1.3	–
E34 [12], 12.3 nM	0.758	–
E34 [12], 37 nM	0.919	–
E34 [12], 111.1 nM	1.49	–
E34 [12], 333.3 nM	1.35	–
E34 [12], 1000 nM	2.05	–
E34 [12], 3000 nM	3.12	–
E57 [6], 4.1 nM	–	0.723
E57 [6], 12.3 nM	–	0.694
E57 [6], 37 nM	–	0.546
E57 [6], 111.1 nM	–	0.511
E57 [6], 333.3 nM	–	0.322
E57 [6], 1000 nM	–	0.323
E57 [6], 3000 nM	–	0.227
E57 [13], 4.1 nM	1.49	–
E57 [13], 12.3 nM	1.61	–
E57 [13], 37 nM	2.55	–
E57 [13], 111.1 nM	2.56	–
E57 [13], 333.3 nM	4.4	–
E57 [13], 1000 nM	4.89	–
E57 [13], 3000 nM	4.79	–
FT3469 [7], 4.1 nM	–	0.912
FT3469 [7], 12.3 nM	–	0.753
FT3469 [7], 37 nM	–	0.87
FT3469 [7], 111.1 nM	–	0.918
FT3469 [7], 333.3 nM	–	0.691
FT3469 [7], 1000 nM	–	0.723
FT3469 [7], 3000 nM	–	0.633
FT3469 [14], 4.1 nM	0.852	–
FT3469 [14], 12.3 nM	0.622	–
FT3469 [14], 37 nM	1.06	–
FT3469 [14], 111.1 nM	1.36	–
FT3469 [14], 333.3 nM	5.19	–
FT3469 [14], 1000 nM	1.49	–
FT3469 [14], 3000 nM	1.95	–

Nc1ccn([C@@H]2O[C@H](CO)[C@@H](O)[C@@H]2O)c(=O)n1 [Cytarabine]
Details	phenotypic distance	surviving fraction
E13 [1], 4.1 nM	–	0.893
E13 [1], 12.3 nM	–	0.843
E13 [1], 37 nM	–	0.673
E13 [1], 111.1 nM	–	0.645
E13 [1], 333.3 nM	–	0.42
E13 [1], 1000 nM	–	0.448
E13 [1], 3000 nM	–	0.389
E13 [8], 4.1 nM	0.95	–
E13 [8], 12.3 nM	1.36	–
E13 [8], 37 nM	1.77	–
E13 [8], 111.1 nM	2.69	–
E13 [8], 333.3 nM	4.49	–
E13 [8], 1000 nM	4.63	–
E13 [8], 3000 nM	4.85	–
E21 [2], 4.1 nM	–	0.787
E21 [2], 12.3 nM	–	0.77
E21 [2], 37 nM	–	0.649
E21 [2], 111.1 nM	–	0.533
E21 [2], 333.3 nM	–	0.339
E21 [2], 1000 nM	–	0.236
E21 [2], 3000 nM	–	0.154
E21 [9], 4.1 nM	1.63	–
E21 [9], 12.3 nM	2.01	–
E21 [9], 37 nM	2.73	–
E21 [9], 111.1 nM	3.44	–
E21 [9], 333.3 nM	4.54	–
E21 [9], 1000 nM	4.75	–
E21 [9], 3000 nM	5.65	–
E28 [3], 4.1 nM	–	0.778
E28 [3], 12.3 nM	–	0.775
E28 [3], 37 nM	–	0.542
E28 [3], 111.1 nM	–	0.586
E28 [3], 333.3 nM	–	0.474
E28 [3], 1000 nM	–	0.511
E28 [3], 3000 nM	–	0.333
E28 [10], 4.1 nM	1.71	–
E28 [10], 12.3 nM	1.24	–
E28 [10], 37 nM	1.72	–
E28 [10], 111.1 nM	2.6	–
E28 [10], 333.3 nM	2.45	–
E28 [10], 1000 nM	2.47	–
E28 [10], 3000 nM	3.27	–
E31 [4], 4.1 nM	–	0.861
E31 [4], 12.3 nM	–	0.637
E31 [4], 37 nM	–	0.463
E31 [4], 111.1 nM	–	0.312
E31 [4], 333.3 nM	–	0.149
E31 [4], 1000 nM	–	0.127
E31 [4], 3000 nM	–	0.126
E31 [11], 4.1 nM	1.02	–
E31 [11], 12.3 nM	1.8	–
E31 [11], 37 nM	1.75	–
E31 [11], 111.1 nM	3.19	–
E31 [11], 333.3 nM	3.48	–
E31 [11], 1000 nM	3.7	–
E31 [11], 3000 nM	4.49	–
E34 [5], 4.1 nM	–	0.892
E34 [5], 12.3 nM	–	0.803
E34 [5], 37 nM	–	0.723
E34 [5], 111.1 nM	–	0.687
E34 [5], 333.3 nM	–	0.555
E34 [5], 1000 nM	–	0.514
E34 [5], 3000 nM	–	0.466
E34 [12], 4.1 nM	1.44	–
E34 [12], 12.3 nM	1.82	–
E34 [12], 37 nM	2.13	–
E34 [12], 111.1 nM	3.16	–
E34 [12], 333.3 nM	3.2	–
E34 [12], 1000 nM	3.33	–
E34 [12], 3000 nM	3.62	–
E57 [6], 4.1 nM	–	0.687
E57 [6], 12.3 nM	–	0.62
E57 [6], 37 nM	–	0.443
E57 [6], 111.1 nM	–	0.316
E57 [6], 333.3 nM	–	0.179
E57 [6], 1000 nM	–	0.179
E57 [6], 3000 nM	–	0.161
E57 [13], 4.1 nM	2.41	–
E57 [13], 12.3 nM	3.28	–
E57 [13], 37 nM	4.72	–
E57 [13], 111.1 nM	6.26	–
E57 [13], 333.3 nM	7.13	–
E57 [13], 1000 nM	6.77	–
E57 [13], 3000 nM	6.62	–
FT3469 [7], 4.1 nM	–	0.758
FT3469 [7], 12.3 nM	–	0.684
FT3469 [7], 37 nM	–	0.654
FT3469 [7], 111.1 nM	–	0.753
FT3469 [7], 333.3 nM	–	0.684
FT3469 [7], 1000 nM	–	0.553
FT3469 [7], 3000 nM	–	0.62
FT3469 [14], 4.1 nM	1.13	–
FT3469 [14], 12.3 nM	1.74	–
FT3469 [14], 37 nM	1.5	–
FT3469 [14], 111.1 nM	1.8	–
FT3469 [14], 333.3 nM	2.13	–
FT3469 [14], 1000 nM	1.94	–
FT3469 [14], 3000 nM	1.69	–
